ChEMBL document CHEMBL3813672, “Discovery of anti-cancer activity for benzo[1,2,4]triazin-7-ones: Very strong correlation to pleurotin and thioredoxin reductase inhibition” (Bioorg Med Chem, 2016)

What was measured:
[1] = Mixed-type inhibition of rat liver thioredoxin reductase using DTNB as substrate measured for 50 mins at 5 mins intervals in presence of NADPH by Lineweaver-Burk plot analysis
[2] = Growth inhibition of human UACC257 cells incubated for 48 hrs by sulforhodamine B assay; assay type: functional; settings: UACC-257, 48 h
[3] = Growth inhibition of human PC3 cells incubated for 48 hrs by sulforhodamine B assay; assay type: functional; settings: PC-3, 48 h
[4] = Growth inhibition of human SNB75 cells incubated for 48 hrs by sulforhodamine B assay; assay type: functional; settings: SNB-75, 48 h
[5] = Growth inhibition of human OVCAR5 cells incubated for 48 hrs by sulforhodamine B assay; assay type: functional; settings: OVCAR-5, 48 h
[6] = Growth inhibition of human OVCAR8 cells incubated for 48 hrs by sulforhodamine B assay; assay type: functional; settings: OVCAR-8, 48 h
NCI-H322M = assay: Growth inhibition of human NCI-H322M cells incubated for 48 hrs by sulforhodamine B assay; assay type: functional
SN12C = assay: Growth inhibition of human SN12C cells incubated for 48 hrs by sulforhodamine B assay; assay type: functional
[7] = Uncompetitive inhibition of rat liver thioredoxin reductase using DTNB as substrate measured for 50 mins at 5 mins intervals in presence of NADPH by Lineweaver-Burk plot analysis
ACHN = assay: Growth inhibition of human ACHN cells incubated for 48 hrs by sulforhodamine B assay; assay type: functional
[8] = Selectivity ratio of IC50 for human GM00637 cells to IC50 for human DU145 cells; assay type: ADME, cell-based; settings: GM00637 cells versus DU145 cells, read-out: Ratio IC50
MDA-MB-435 = assay: Growth inhibition of human MDA-MB-435 cells incubated for 48 hrs by sulforhodamine B assay; assay type: functional; settings: MDA-MB-435, 48 h
[9] = Growth inhibition of human BT549 cells incubated for 48 hrs by sulforhodamine B assay; assay type: functional; settings: BT-549, 48 h
MDA-MB-468 = assay: Growth inhibition of human MDA-MB-468 cells incubated for 48 hrs by sulforhodamine B assay; assay type: functional; settings: MDA-MB-468, 48 h
[10] = Growth inhibition of human COLO205 cells incubated for 48 hrs by sulforhodamine B assay; assay type: functional; settings: COLO 205, 48 h
[11] = Growth inhibition of human OVCAR4 cells incubated for 48 hrs by sulforhodamine B assay; assay type: functional; settings: OVCAR-4, 48 h
MDA-MB-231 = assay: Growth inhibition of human MDA-MB-231/ATCC cells incubated for 48 hrs by sulforhodamine B assay; assay type: functional; settings: MDA-MB-231, 48 h
SK-MEL-5 = assay: Growth inhibition of human SK-MEL-5 cells incubated for 48 hrs by sulforhodamine B assay; assay type: functional; settings: SK-MEL-5, 48 h
[12] = Growth inhibition of human HL-60(TB) cells incubated for 48 hrs by sulforhodamine B assay; assay type: functional; settings: HL-60, 48 h
[13] = Growth inhibition of human Hs 578T cells incubated for 48 hrs by sulforhodamine B assay; assay type: functional
NCI-H522 = assay: Growth inhibition of human NCI-H522 cells incubated for 48 hrs by sulforhodamine B assay; assay type: functional; settings: NCI-H522, 48 h
EKVX = assay: Growth inhibition of human EKVX cells assessed as cell growth at 10 uM incubated for 48 hrs by sulforhodamine B assay relative to control; assay type: functional; settings: read-out: Activity
T47D = assay: Growth inhibition of human T47D cells incubated for 48 hrs by sulforhodamine B assay; assay type: functional
KM12 = assay: Growth inhibition of human KM12 cells incubated for 48 hrs by sulforhodamine B assay; assay type: functional; settings: KM12, 48 h
A498 = assay: Growth inhibition of human A498 cells incubated for 48 hrs by sulforhodamine B assay; assay type: functional; settings: A498, 48 h
[14] = Growth inhibition of human HCT116 cells incubated for 48 hrs by sulforhodamine B assay; assay type: functional; settings: HCT-116, 48 h
[15] = Growth inhibition of human SF268 cells incubated for 48 hrs by sulforhodamine B assay; assay type: functional; settings: SF-268, 48 h
NCI-H226 = assay: Growth inhibition of human NCI-H226 cells incubated for 48 hrs by sulforhodamine B assay; assay type: functional; settings: NCI-H226, 48 h
[16] = Growth inhibition of human OVCAR3 cells incubated for 48 hrs by sulforhodamine B assay; assay type: functional; settings: OVCAR-3, 48 h
SR = assay: Growth inhibition of human SR cells incubated for 48 hrs by sulforhodamine B assay; assay type: functional
[17] = Growth inhibition of human MOLT4 cells incubated for 48 hrs by sulforhodamine B assay; assay type: functional; settings: MOLT-4, 48 h
CCRF-CEM = assay: Growth inhibition of human CCRF-CEM cells incubated for 48 hrs by sulforhodamine B assay; assay type: functional
[18] = Growth inhibition of human SF539 cells incubated for 48 hrs by sulforhodamine B assay; assay type: functional; settings: SF-539, 48 h
SK-MEL-2 = assay: Growth inhibition of human SK-MEL-2 cells incubated for 48 hrs by sulforhodamine B assay; assay type: functional; settings: SK-MEL-2, 48 h
[19] = read-out: pLC50 (the source's name) (converted)

O=c1ccc2nc(-c3ccccc3)nn(-c3ccccc3)c-2c1
Ki [1]: 3.9 µM

O=c1ccc2nc(C(F)(F)F)nn(-c3ccccc3)c-2c1
GI50 [2]: 1.91 µM | CC50 [2, 19]: 8.51 µM | TGI ([2]; read-out: pTGI (converted)): 4.07 µM | GI50 [3]: 10.7 µM | CC50 [3, 19]: 52.5 µM | TGI ([3]; read-out: pTGI (converted)): 23.4 µM | GI50 [4]: 13.2 µM | CC50 [4, 19]: 52.5 µM | TGI ([4]; read-out: pTGI (converted)): 26.3 µM | GI50 [5]: 15.5 µM | CC50 [5, 19]: 55 µM | TGI ([5]; read-out: pTGI (converted)): 28.8 µM | GI50 [6]: 4.17 µM | CC50 [6, 19]: > 100 µM | TGI ([6]; read-out: pTGI (converted)): 33.9 µM | GI50 (NCI-H322M): 18.6 µM | CC50 (NCI-H322M; [19]): 61.7 µM | TGI (NCI-H322M; read-out: pTGI (converted)): 33.9 µM | GI50 (SN12C): 7.24 µM | CC50 (SN12C; [19]): > 100 µM | TGI (SN12C; read-out: pTGI (converted)): 57.5 µM | Ki [7]: 0.78 µM | GI50 (ACHN): 1.17 µM | CC50 (ACHN; [19]): 5.13 µM | TGI (ACHN; read-out: pTGI (converted)): 2.45 µM | selectivity ratio [8]: 2 | GI50 (MDA-MB-435): 4.57 µM | CC50 (MDA-MB-435; [19]): 40.7 µM | TGI (MDA-MB-435; read-out: pTGI (converted)): 16.6 µM | GI50 [9]: 12.3 µM | CC50 [9, 19]: 50.1 µM | TGI ([9]; read-out: pTGI (converted)): 24.5 µM | GI50 (MDA-MB-468): 1.07 µM | CC50 (MDA-MB-468; [19]): 8.32 µM | TGI (MDA-MB-468; read-out: pTGI (converted)): 2.95 µM | GI50 [10]: 2.29 µM | CC50 [10, 19]: > 100 µM | TGI ([10]; read-out: pTGI (converted)): 5.75 µM | GI50 [11]: 1.48 µM | CC50 [11, 19]: 5.37 µM | TGI ([11]; read-out: pTGI (converted)): 2.82 µM | GI50 (MDA-MB-231): 1.91 µM | CC50 (MDA-MB-231; [19]): 26.9 µM | TGI (MDA-MB-231; read-out: pTGI (converted)): 5.62 µM | GI50 (SK-MEL-5): 7.76 µM | CC50 (SK-MEL-5; [19]): 47.9 µM | TGI (SK-MEL-5; read-out: pTGI (converted)): 20.9 µM | GI50 [12]: 1.2 µM | CC50 [12, 19]: > 100 µM | TGI ([12]; read-out: pTGI (converted)): 4.27 µM | GI50 [13]: 12.3 µM | CC50 [13, 19]: > 100 µM | TGI ([13]; read-out: pTGI (converted)): 81.3 µM | GI50 (NCI-H522): 1.51 µM | CC50 (NCI-H522; [19]): 6.03 µM | TGI (NCI-H522; read-out: pTGI (converted)): 3.02 µM | growth at 10 µM (EKVX): 95.8% | GI50 (T47D): 1.7 µM | CC50 (T47D; [19]): > 100 µM | TGI (T47D; read-out: pTGI (converted)): 6.61 µM | GI50 (KM12): 19.5 µM | CC50 (KM12; [19]): 70.8 µM | TGI (KM12; read-out: pTGI (converted)): 37.2 µM | GI50 (A498): 14.1 µM | CC50 (A498; [19]): 52.5 µM | TGI (A498; read-out: pTGI (converted)): 26.9 µM | GI50 [14]: 1.62 µM | CC50 [14, 19]: 6.17 µM | TGI ([14]; read-out: pTGI (converted)): 3.16 µM | GI50 [15]: 15.1 µM | CC50 [15, 19]: 56.2 µM | TGI ([15]; read-out: pTGI (converted)): 28.8 µM | GI50 (NCI-H226): 13.2 µM | CC50 (NCI-H226; [19]): 70.8 µM | TGI (NCI-H226; read-out: pTGI (converted)): 30.2 µM | GI50 [16]: 1.58 µM | CC50 [16, 19]: 5.5 µM | TGI ([16]; read-out: pTGI (converted)): 2.95 µM | GI50 (SR): 1 µM | CC50 (SR; [19]): > 100 µM | TGI (SR; read-out: pTGI): > 100 µM | GI50 [17]: 2.14 µM | CC50 [17, 19]: > 100 µM | TGI ([17]; read-out: pTGI (converted)): 9.12 µM | GI50 (CCRF-CEM): 2.34 µM | CC50 (CCRF-CEM; [19]): > 100 µM | GI50 [18]: 15.8 µM | CC50 [18, 19]: 55 µM | TGI ([18]; read-out: pTGI (converted)): 29.5 µM | GI50 (SK-MEL-2): 3.63 µM | CC50 (SK-MEL-2; [19]): 58.9 µM | TGI (SK-MEL-2; read-out: pTGI (converted)): 15.5 µM
